Measured values reported in patent US20160278375A1, “BISCATIONIC AND TRISCATIONIC AMPHIPHILES AS ANTIMICROBIAL AGENTS” (Temple University of the Commonwealth System of Higher …, priority 2013, published 2016).
Like-named read-outs stand apart in the source and are kept apart here.

How the values were obtained:
[1] = system: Enterococcus faecalis (OG1RF); assay: MIC determination by two-fold serial dilution in 96-well microtiter plates; type: cell-based
Protocol: (§1) For the compounds above, respective minimum inhibitory concentration (MIC) values against the Gram-positive S. aureus, E. faecalis, Gram-negative E. coli and P. aeruginosa were determined, respectively, by standard methods. […] Cell viability was verified by serial dilution and plating on MH agar. Both aqueous and fresh media positive controls were performed for each trial. Overnight bacterial cultures of Staphylococcus aureus (SH1000), Enterococcus faecalis (OG1RF), Escherichia coli (MC4100), and Pseudomonas aeruginosa (PAO1-WT) were grown in Mueller-Hinton broth at 37° C., with all but E. faecalis under shaking Overnight cultures were diluted to approximately 10^6 cfu/mL as determined by OD measurement at 640 nm and plating on MH agar.
(§2) Each compound was serially diluted two-fold with water from 1 mM down to 1 μM yielding twelve dilutions per compound. In triplicate, 100 µL of each dilution were pipetted into the appropriate well of a 96-well microtiter plate, and then […] of overnight bacterial culture diluted to ca. 10^6 cfu/mL were inoculated into each well. Microtiter plates were incubated at 37° C. for 72 hours. Up to seven compounds were tested against one bacterial species at twelve decreasing concentrations per 96-well plate.

[2] = system: Escherichia coli (MC4100); assay: as above; type: cell-based; conditions: for MIC E. coli: Table 2, trisamine compounds
Protocol: as §1, §2

[3] = system: Pseudomonas aeruginosa (PAO1-WT); assay: as above; type: cell-based
Protocol: as §1, §2

[4] = system: Staphylococcus aureus (SH1000); assay: as above; type: cell-based
Protocol: as §1, §2

[5] = system: S. aureus, E. faecalis, E. coli and P. aeruginosa; assay: MIC determination, statements across the bacteria tested; type: cell-based
Protocol: as §1, §2

water solubility = type: physicochemical
[6] = Enterococcus faecalis, Table 1, 37° C., 72 hours, read-out: MIC, Gram positive E. faecalis
[7] = Escherichia coli, 72 h, read-out: MIC, Gram negative E. coli
[8] = Pseudomonas aeruginosa, PAO1, Table 1, 37° C., 72 hours, read-out: MIC, Gram negative P. aeruginosa
[9] = Staphylococcus aureus, Table 1, 37° C., 72 hours, read-out: MIC, Gram positive S. aureus
[10] = Escherichia coli, Table 1, 37° C., 72 hours, read-out: MIC, Gram negative E. coli
[11] = Table 2, trisamine compounds, read-out: MIC E faecalis
[12] = Table 2, trisamine compounds, read-out: MIC P aeruginosa
[13] = Table 2, trisamine compounds, read-out: MIC S. aureus
[14] = Table 1, 37° C., 72 hours, read-out: MIC, Gram negative E. coli
[15] = Table 1, 37° C., 72 hours, read-out: MIC, Gram negative P. aeruginosa

Row | Molecule | MIC [1, 6] [µM] | MIC [2, 7] [µM] | MIC [3, 8] [µM] | MIC [4, 9] [µM] | other results
1 | CCCCCCCCCCCCCCCCCCCC[N+](C)(C)CC[N+](C)(C)CCCCCCCC [(20, 2, 8)] | 4 | 16 | 32 | 4 | –
2 | CCCCCCCCCC[N+](C)(C)CC[N+](C)(C)CCCCCCCC [(10, 2, 8)] | 63 | 63 | 125 | 8 | –
3 | CCCCCCCCCCCCCCCCCC[N+](C)(C)CC[N+](C)(C)CCCCCCCCCCCC [(18, 2, 12)] | 4 | 16 | 32 | 4 | –
4 | CCCCCCCCCCCCCCCC[N+](C)(C)CC[N+](C)(C)CCCCCCCCCCCCCC [(16, 2, 14)] | 2 | 16 | 63 | 8 | –
5 | CCCCCCCCCCCC[N+](C)(C)CC[N+](C)(C)CCCCCCCCCC [(12, 2, 10)] | 2 | 2 | 2 | 1 | –
6 | CCCCCCCCCC[N+](C)(C)CC[N+](C)(C)CCCCCCCCCC [(10, 2, 10)] | 8 | 16 | 8 | 2 | –
7 | CCCCCCCCCCCCCC[N+](C)(C)CC[N+](C)(C)CCCCCCCCCCCCCC [(14, 2, 14)] | 2 | 4 | 32 | 4 | –
8 | CCCCCCCCCCCCCC[N+](C)(C)CC[N+](C)(C)CCCCCCCCCCCC [(14, 2, 12)] | 2 | 2 | 8 | 1 | –
9 | CCCCCCCCCCCCCCCCCC[N+](C)(C)CC[N+](C)(C)CCCCCCCCCCCCCCCCCC [(18, 2, 18)] | 63 | 250 | 500 | 32 | –
10 | CCCCCCCCCCCCCCCCCCCC[N+](C)(C)CC[N+](C)(C)CCCCCCCCCC [(20, 2, 10)] | 16 | 16 | 16 | 4 | –
11 | CCCCCCCCCCCCCC[N+](C)(C)CC[N+](C)(C)CCCCCCCC [(14, 2, 8)] | 2 | 2 | 4 | 1 | –
12 | CCCCCCCCCCCCCCCCCC[N+](C)(C)CC[N+](C)(C)CCCCCCCCCCCCCC [(18, 2, 14)] | 16 | 16 | 63 | 8 | –
13 | CCCCCCCCCCCCCCCC[N+](C)(C)CCN(C)C [(16, 2, 0)] | 16 | – | 16 | 1 | MIC [2, 10]: 16 µM
14 | CCCCCCCCCCCC[N+](C)(C)CCN(C)CC[N+](C)(C)CCCCCCCCCCCC.[Br-].[Br-] [12, 2, 0, 2, 12] | – | – | – | – | MIC [1, 11]: 2 µM; MIC E. coli [2]: 1 µM; MIC [3, 12]: 4 µM; MIC [4, 13]: 1 µM
15 | N-alkyl-N-benzyl-N,N-dimethylammonium chloride [benzalkonium chloride, reference compound] | – | – | – | – | MIC ([1]; Table 1, 37° C., 72 hours, read-out: MIC, Gram positive E. faecalis): 8 µM; MIC [2, 14]: 32 µM; MIC [3, 15]: 63 µM; MIC ([4]; Table 1, 37° C., 72 hours, read-out: MIC, Gram positive S. aureus): 8 µM; fold less activity ([5]; compared with compound (12,2,10)): 4-32 fold
16 | CCCCCCCCCCCCCCCCCC[N+](C)(C)CC[N+](C)(C)CCCCCCCCCCCCCCCC [(18, 2, 16)] | 32 | 32 | 63 | 16 | –
17 | CCCCCCCCCCCCCC[N+](C)(C)CCN(C)CC[N+](C)(C)CCCCCCCCCCCCCC [14, 2, 0, 2, 14] | – | – | – | – | MIC ([1]; Enterococcus faecalis, Table 2, trisamine compounds, read-out: MIC E faecalis): 2 µM; MIC ([2]; Escherichia coli, read-out: MIC E. coli): 4 µM; MIC ([3]; Pseudomonas aeruginosa, PAO1, Table 2, trisamine compounds, read-out: MIC P aeruginosa): 32 µM; MIC ([4]; Staphylococcus aureus, Table 2, trisamine compounds, read-out: MIC S. aureus): 2 µM
18 | CCCCCCCCCC[N+](C)(C)CCN(C)CC[N+](C)(C)CCCCCCCCCC.[Br-].[Br-] [10, 2, 0, 2, 10] | – | – | – | – | MIC [1, 11]: 8 µM; MIC E. coli [2]: 8 µM; MIC [3, 12]: 32 µM; MIC [4, 13]: 2 µM
19 | CCCCCCCCCCCC[N+](C)(C)CC[N+](C)(C)CCCCCCCCCC [Compound (12, 2, 10)] | – | – | – | – | MIC ([5]; S. aureus, E. faecalis, E. coli, P. aeruginosa, read-out: MIC values against all four bacterial species tested): ≤ 2 µM
20 | CCCCCCCCCCCCCCCC[N+](C)(C)CC[N+](C)(C)CCCCCCCCCC [(16, 2, 10)] | 4 | 8 | 32 | 4 | –
21 | CCCCCCCCCCCCCCCCCCCC[N+](C)(C)CC[N+](C)(C)CCCCCCCCCCCCCC [(20, 2, 14)] | 16 | 16 | 63 | 8 | –

Row | Molecule | MIC [1, 6] [µM] | MIC [2, 7] [µM] | MIC [3, 8] [µM] | MIC [4, 9] [µM] | other results
22 | CCCCCCCCCCCCC[N+](C)(C)CC[N+](C)(C)CCCCCCCCCC [Compound (13, 2, 10)] | 1 | 2 | 2 | 1 | –
23 | CCCCCCCCCCCCCCCC[N+](C)(C)CC[N+](C)(C)CCCCCCCCCCCC [(16, 2, 12)] | 4 | 8 | 32 | 8 | –
24 | CCCCCCCCCCCC[N+](C)(C)CC[N+](C)(C)CCCCCCCCCCCC [(12, 2, 12)] | 1 | 2 | 4 | 1 | –
25 | CCCCCCCCCCC[N+](C)(C)CC[N+](C)(C)CCCCCCCCCC [(11, 2, 10)] | – | 4 | – | – | MIC ([1]; Enterococcus faecalis, 72 h, read-out: MIC, Gram positive E. faecalis): 4 µM; MIC ([3]; Pseudomonas aeruginosa, PAO1, 72 h, read-out: MIC, Gram negative P. aeruginosa): 4 µM; MIC ([4]; Staphylococcus aureus, 72 h, read-out: MIC, Gram positive S. aureus): 1 µM
26 | CCCCCCCCCCCCCCCCCC[N+](C)(C)CC[N+](C)(C)CCCCCCCC [Compound (18, 2, 8)] | – | – | – | – | water solubility (water solubility): fully water soluble
27 | CCCCCCCCCCCCCCCC[N+](C)(C)CC[N+](C)(C)CCCCCCCCCCCCCCCC [(16, 2, 16)] | 8 | 32 | 63 | 8 | –
28 | CCCCCCCCCCCCCCCCCCCC[N+](C)(C)CC[N+](C)(C)CCCCCCCCCCCCCCCC [(20, 2, 16)] | 32 | 63 | 63 | 16 | –
29 | CCCCCCCCCCCCCCCCCC[N+](C)(C)CCN(C)C [(18, 2, 0)] | 4 | – | – | 2 | MIC [2, 10]: 63 µM; MIC [3, 15]: 63 µM
30 | CCCCCCCCCCCC[N+](C)(C)CC[N+](C)(C)CCCCCCCC [(12, 2, 8)] | 4 | 4 | 4 | 1 | –
31 | CCCCCCCCCCCCCCCCCCCC[N+](C)(C)CCN(C)C [(20, 2, 0)] | 4 | – | 125 | 4 | MIC [2, 10]: 63 µM
32 | CCCCCCCCCC[N+](C)(C)CCN(C)C [(10, 2, 0)] | 250 | – | 250 | 63 | MIC [2, 10]: 250 µM
33 | CCCCCCCCCCCCCCCCCC[N+](C)(C)CC[N+](C)(C)CCCCCCCCCC [(18, 2, 10)] | 2 | 16 | 32 | 4 | –
34 | CCCCCCCCCCCCCCCCCCCC[N+](C)(C)CC[N+](C)(C)CCCCCCCC [Compound (20, 2, 8)] | – | – | – | – | water solubility (water solubility): fully water soluble
35 | CCCCCCCC[N+](C)(C)CC[N+](C)(C)CCCCCCCC [(8, 2, 8)] | 500 | 250 | 500 | 32 | –
36 | CCCCCCCCCCCCCC[N+](C)(C)CCN(C)C [(14, 2, 0)] | 8 | – | 125 | 2 | MIC [2, 10]: 16 µM
37 | CCCCCCCCCCCCCCCCCC[N+](C)(C)CCN(C)C.[Br-] [Compound (18, 2, 0)] | – | – | 63 | – | MIC [2, 14]: 63 µM; MIC ([5]; S. aureus and E. faecalis, read-out: MIC values versus Gram positive bacteria): 2 to 4 µM
38 | CCCCCCCCCCCC[N+](C)(C)CCN(C)C [(12, 2, 0)] | 63 | – | 250 | 32 | MIC [2, 10]: 63 µM
39 | CCCCCCCCCCCCCCCC[N+](C)(C)CC[N+](C)(C)CCCCCCCC [(16, 2, 8)] | 2 | 2 | 4 | 2 | –
40 | CCCCCCCCCCCCCC[N+](C)(C)CC[N+](C)(C)CCCCCCCCCC [(14, 2, 10)] | 1 | 2 | 4 | 4 | –
41 | CCCCCCCCCCCCCCCCCC[N+](C)(C)CC[N+](C)(C)CCCCCCCC [(18, 2, 8)] | 2 | 8 | 32 | 2 | –
42 | CCCCCCCCCCCCCCCCCCCC[N+](C)(C)CC[N+](C)(C)CCCCCCCCCCCC [(20, 2, 12)] | 4 | 32 | 63 | 8 | –
